Test results from patent publication US20060252725A1, “Use of prebiotics for preventing or treating oxidation stress” (priority 2002, published 2006).

Legend:
Type in all cases: in vivo, rat (Wistar-Han)
[1] = system: lipid peroxidation; experiment: Plasma TBARS in rats after 4 weeks of diet
Experimental: (§1) 40 weaned male rats of the Wistar-Han type (IFFA-CREDO; L'Arbresle, France) 6 week old and weighing approximately 150 g were used. The rats were placed in cages with a wire mesh back in a temperature-controlled room (22° C.) with day/night cycles of 12 hours. The animals were treated according to the recommendations of the INRA Ethics Committee, decree No. 87-848.
(§2) First of all the rats were fed following a semi-purified starch-based diet for 7 days: They were then randomly divided into 4 groups of 10 rats: one starch group (A), one fructose group (F), one starch+FOS group (A/FOS) and one fructose+FOS group (F/FOS). They then followed their appropriate diet for 4 weeks. […]
(§3) The FOS (Raftilose® P95) were obtained from ORAFTI, Thienen, Belgium. They were introduced into the food gradually in order to avoid diarrhoea which could occur in response to too rapid an administration of large quantities of this compound. […]
(§4) 4 days before sacrifice, the animals were housed individually in stainless steel cages with ad libitum access to the water and food. Urine-samples were recovered 24 hours before sacrifice in 50 ml graduated tubes, the volumes were precisely measured, the samples were then centrifuged and kept at −80° C. until analysis. […]
(§5) The levels of plasma TBARS were determined by spectrofluorometry on an LS 5 device (Perkin Elmer, Norwalk, Conn., USA). […]

[2] = system: lipid peroxidation; experiment: Urinary TBARS in rats after 4 weeks of diet; conditions: diet for 4 weeks
Experimental: as §1, §2, §3, §4, §5

[3] = Plasma vitamin E concentration and vitamin E/triglycerides ratio in rats after 4 weeks of diet; conditions: diet for 4 weeks
Experimental: as §1
(§6) First of all the rats were fed following a semi-purified starch-based diet for 7 days: They were then randomly divided into 4 groups of 10 rats: one starch group (A), one fructose group (F), one starch+FOS group (A/FOS) and one fructose+FOS group (F/FOS). They then followed their appropriate diet for 4 weeks.
(§7) The food and distilled water were provided ad libitum. The composition of the food rations was as follows (in g/kg):
The FOS (Raftilose® P95) were obtained from ORAFTI, Thienen, Belgium. They were introduced into the food gradually in order to avoid diarrhoea which could occur in response to too rapid an administration of large quantities of this compound. Raftilose® P95 is a mixture of Glucosyl-(Fructosyl)n-Fructose (64%) and of (Fructosyl)m-Fructose (36%) with average degrees of polymerization of 4.8.
as §4, with “analysis. At the time of sacrifice the rats were weighed, then anesthetized using sodium pentobarbital (intra-peritoneal injection at 40 mg/kg) and killed.” for “analysis.”
The plasma concentrations of vitamin E were determined by reversed-phase high performance liquid chromatography on a Kontron series 400 device (Kontron St Quentin en Yvelines, France) using a hexane extract. α-tocopherol acetate (Sigma) was added to the samples as internal control. […] The compounds were detected by UV (292 nm) then quantified with internal and external calibrations using control solutions.

[4] = Plasma triglyceride concentration in rats after 4 weeks of diet; conditions: diet for 4 weeks, average of 10 animals ± standard deviation
Experimental: as §1, §6, §7, §3, §4

[5] = system: heart lipids; experiment: Heart TBARS: susceptibility of heart lipids to FeSO4-ascorbate induced peroxidation; conditions: rats, diet for 4 weeks
Experimental: as §1, §2, §3, §4, §5

[6] = Fructose vs Starch group, Fructose+FOS vs Fructose group

With `O=C(CO)[C@@H](O)[C@H](O)[C@H](O)CO` [Fructose] as the molecule, how does the “Plasma TBARS” value ([1]; diet ad libitum for 4 weeks, FOS 100 g/kg diet, sugar 650 or 550 g/kg, average of 10 animals ± standard deviation) read?
The value was 2.14 ± 0.07 nmol/mL.

And the “Plasma TBARS, comparison between diet groups” value ([1]; diet for 4 weeks, Fructose vs Starch group, Fructose+FOS vs Fructose group)?
The value was “significantly higher”.

What about the “Urinary TBARS, comparison between diet groups” value [2, 6] of the same molecule?
The value was “significantly higher”.

What about the “Urinary TBARS” value ([2]; urine of 24 hours, average of 10 animals ± standard deviation) of the same molecule?
The value was 21.97 ± 1.58 nmol/24 h.

And the “Ratio Vitamin E/TG, effect of the diet” value ([3]; diet rich in fructose vs starch diet, supplementation with FOS)?
Its value is “lowers the ratio Vitamin E/TG”.

And the Vitamin E/TG ([3]; plasma ratio, average of 10 animals ± standard deviation)?
Its Vitamin E/TG is 2.68 ± 0.12 µg/µmol.

What about the “Vitamin E” value ([3]; plasma, average of 10 animals ± standard deviation) of the same molecule?
Its value is 9.74 ± 0.92 µg/mL.

And the Triglycerides (TG) [4]?
The Triglycerides (TG) was 3.73 ± 0.45 mM.

What about the “Heart TBARS, comparison between diet groups” value [5, 6] of the same molecule?
Its value is “significantly higher”.

What about the “Heart TBARS” value ([5]; heart homogenate, FeSO4 (2 μmol/l)-ascorbate (50 μmol/l), 30 minutes at 37° C., average of 10 animals ± standard deviation) of the same molecule?
Its value is 98.8 ± 6.5 nmol/g of fresh weight.
